From patent publication US8148391B2 (Cephalon, Inc., priority 2006, dated 2012)
Structures can show the parent of a compound that is named as a salt. Where two headings read alike, the source gives them in different places. One block for each compound: values may come before it.

Key:
[1] = target: T1, baculovirus-expressed ALK (Homo sapiens, UniProt Q9UM73); assay: ALK Kinase Assay (ELISA-type, time-resolved fluorescence); assay type: biochemical
T1 construct: host or cells: baculovirus expression system
T1 sequence (Q9UM73 19-1620): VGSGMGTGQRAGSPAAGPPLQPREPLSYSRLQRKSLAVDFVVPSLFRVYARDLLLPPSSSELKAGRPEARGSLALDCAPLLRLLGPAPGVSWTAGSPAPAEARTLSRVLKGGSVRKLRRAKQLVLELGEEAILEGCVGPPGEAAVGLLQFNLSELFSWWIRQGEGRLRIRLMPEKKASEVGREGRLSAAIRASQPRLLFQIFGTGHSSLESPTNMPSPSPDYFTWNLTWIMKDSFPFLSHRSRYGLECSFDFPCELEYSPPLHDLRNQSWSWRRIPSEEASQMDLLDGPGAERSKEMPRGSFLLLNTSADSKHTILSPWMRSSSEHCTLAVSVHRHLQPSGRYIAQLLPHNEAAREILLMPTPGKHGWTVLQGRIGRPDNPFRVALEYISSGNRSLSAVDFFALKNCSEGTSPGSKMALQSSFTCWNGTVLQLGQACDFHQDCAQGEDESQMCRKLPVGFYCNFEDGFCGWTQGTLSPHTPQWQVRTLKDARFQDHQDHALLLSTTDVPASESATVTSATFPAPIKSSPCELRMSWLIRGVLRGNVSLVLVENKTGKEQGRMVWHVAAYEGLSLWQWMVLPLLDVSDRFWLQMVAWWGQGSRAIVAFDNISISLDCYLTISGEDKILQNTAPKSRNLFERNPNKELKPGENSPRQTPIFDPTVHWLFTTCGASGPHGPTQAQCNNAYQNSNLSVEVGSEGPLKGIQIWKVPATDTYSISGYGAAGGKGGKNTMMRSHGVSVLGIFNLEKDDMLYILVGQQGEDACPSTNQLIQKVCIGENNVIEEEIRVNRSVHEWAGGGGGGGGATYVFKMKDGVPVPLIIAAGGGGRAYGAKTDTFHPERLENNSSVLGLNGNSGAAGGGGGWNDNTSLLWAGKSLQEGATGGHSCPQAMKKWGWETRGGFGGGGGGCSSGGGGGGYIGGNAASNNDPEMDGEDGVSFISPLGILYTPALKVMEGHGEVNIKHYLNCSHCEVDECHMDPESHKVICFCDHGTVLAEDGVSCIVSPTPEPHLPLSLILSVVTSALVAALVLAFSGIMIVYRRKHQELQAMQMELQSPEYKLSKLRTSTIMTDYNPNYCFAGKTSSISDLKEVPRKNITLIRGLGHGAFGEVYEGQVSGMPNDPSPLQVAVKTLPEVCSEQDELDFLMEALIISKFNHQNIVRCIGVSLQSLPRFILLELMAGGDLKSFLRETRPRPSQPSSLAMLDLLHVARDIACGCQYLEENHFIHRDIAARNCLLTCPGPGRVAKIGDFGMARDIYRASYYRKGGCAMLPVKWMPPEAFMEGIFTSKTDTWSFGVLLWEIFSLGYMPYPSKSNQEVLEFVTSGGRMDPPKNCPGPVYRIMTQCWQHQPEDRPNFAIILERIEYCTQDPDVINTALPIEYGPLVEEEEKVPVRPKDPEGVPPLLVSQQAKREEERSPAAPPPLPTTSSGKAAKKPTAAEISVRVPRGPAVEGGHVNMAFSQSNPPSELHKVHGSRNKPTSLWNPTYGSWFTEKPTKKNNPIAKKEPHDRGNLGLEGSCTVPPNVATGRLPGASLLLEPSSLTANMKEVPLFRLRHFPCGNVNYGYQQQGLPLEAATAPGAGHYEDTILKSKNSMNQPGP
Method in brief: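 Plates coated with phospholipase C-γ substrate (10 μg/mL in TBS); reaction started with 30 ng/ml ALK and run 15 min at 37° C. Phosphorylated substrate detected with Eu-N1-labeled PT66 antibody. IC50 from sigmoidal variable-slope fit of percent inhibition vs log concentration.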

[2] = target: T2, c-Met (cytoplasmic domain) (Homo sapiens, UniProt P08581); assay: c-Met Kinase Assay (same methods as for ALK, with modifications); assay type: biochemical
T2 construct: 10 ng/mL c-Met (cytoplasmic domain, Invitrogen Corporation #PV3143); purchased Invitrogen Corporation PV3143
T2 sequence (P08581 956-1390 limits assumed): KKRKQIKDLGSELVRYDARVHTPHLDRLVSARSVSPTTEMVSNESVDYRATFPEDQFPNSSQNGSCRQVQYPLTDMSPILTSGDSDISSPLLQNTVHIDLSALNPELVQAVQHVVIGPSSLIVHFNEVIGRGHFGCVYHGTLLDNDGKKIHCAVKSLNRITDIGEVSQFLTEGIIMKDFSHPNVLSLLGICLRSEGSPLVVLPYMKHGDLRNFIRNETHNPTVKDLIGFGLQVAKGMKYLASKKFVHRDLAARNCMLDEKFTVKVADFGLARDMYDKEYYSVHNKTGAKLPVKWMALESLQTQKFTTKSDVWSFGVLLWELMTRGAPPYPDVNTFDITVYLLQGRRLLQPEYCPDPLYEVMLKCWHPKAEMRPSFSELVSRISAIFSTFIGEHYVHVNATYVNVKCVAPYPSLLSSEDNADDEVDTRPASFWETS
Method in brief: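 Europium-labeled PT66 antibody (Eu-N1) detects substrate phosphorylation on wells coated with phospholipase C-γ at 10 μg/mL. The kinase, the cytoplasmic domain of c-Met at 10 ng/mL, starts the reaction, which proceeds 15 minutes at 37° C.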

[3] = ALK kinase inhibition, 1 μM ATP (Km level), read-out: ALK Activity
[4] = c-Met kinase inhibition, 1 μM ATP (Km level), read-out: cMet Activity
[5] = ALK kinase inhibition, 1 μM ATP, read-out: ALK Activity
[6] = c-Met kinase inhibition, 1 μM ATP, read-out: cMet Activity
[7] = 1 μM ATP (Km level), read-out: ALK Activity (ALK Kinase Inhibition, IC50)
[8] = 1 μM ATP (Km level), read-out: cMet Activity (c-Met Kinase Inhibition, IC50)
[9] = 1 μM ATP (Km level), 30 ng/ml ALK, 37° C., 15 minutes, read-out: ALK Activity (ALK kinase inhibition, IC50 class)
[10] = 1 μM ATP (Km level), 10 ng/mL c-Met, read-out: cMet Activity (c-Met kinase inhibition, IC50 class)

IC50 [1, 3]: 0.1 to 1 µM | IC50 [2, 4]: 1 to 10 µM
SMILES: CNC(=O)c1ccccc1Nc1nc(Nc2cccc3c2CN(C(C)=O)CCN3)ncc1Cl [Example 236, 2-[2-(4-Acetyl-2,3,4,5-tetrahydro-1H-benzo[e][1,4]diazepin-6-ylamino)-5-chloro-pyrimidin-4-ylamino]-N-methyl-benzamide]

IC50 [1, 5]: 0.1 to 1 µM | IC50 [2, 6]: < 0.1 µM
SMILES: CNC(=O)c1cc(F)cc(F)c1Nc1nc(Nc2ccc3c(c2)N(C(C)=O)CCCC3(C)C)ncc1Cl [Example 1608, 2-[2-(1-Acetyl-5,5-dimethyl-2,3,4,5-tetrahydro-1H-benzo[b]azepin-8-ylamino)-5-chloro-pyrimidin-4-ylamino]-3,5-difluoro-N-methyl-benzamide]

IC50 [1, 7]: < 0.1 µM | IC50 [2, 8]: 1 to 10 µM
SMILES: CN1CCN(C2CCc3ccc(Nc4ncc(Cl)c(N[C@H]5[C@@H](C(N)=O)[C@@H]6C=C[C@H]5C6)n4)cc3CC2)CC1 (stereo partly drawn) [Example 892, (1S,2S,3R,4R)-3-{5-Chloro-2-[7-(4-methyl-piperazin-1-yl)-6,7,8,9-tetrahydro-5H-benzocyclohepten-2-ylamino]-pyrimidin-4-ylamino}-bicyclo[2.2.1]hept-5-ene-2-carboxylic acid amide]

IC50 [1, 9]: < 0.1 µM | IC50 [2, 10]: > 10 µM
SMILES: CNc1nc(N2CCOCC2)ccc1Nc1nc(Nc2cc3c(cc2OC)CCN(CC(=O)N(C)C)CC3)ncc1Cl [Example 1209, 2-{7-[5-Chloro-4-(2-methylamino-6-morpholin-4-yl-pyridin-3-ylamino)-pyrimidin-2-ylamino]-8-methoxy-1,2,4,5-tetrahydro-benzo[d]azepin-3-yl}-N,N-dimethyl-acetamide]

IC50 [1, 9]: < 0.1 µM | IC50 [2, 10]: > 10 µM
SMILES: COc1cc2c(cc1Nc1ncc(Cl)c(Nc3cccnc3OC)n1)CCN(CC(=O)N(C)C)CC2 [Example 1190, 2-{7-[5-Chloro-4-(2-methoxy-pyridin-3-ylamino)-pyrimidin-2-ylamino]-8-methoxy-1,2,4,5-tetrahydro-benzo[d]azepin-3-yl}-N,N-dimethyl-acetamide]

IC50 [1, 9]: < 0.1 µM | IC50 [2, 10]: > 10 µM
SMILES: COCCN1CCc2cc(Nc3ncc(Cl)c(Nc4ccccc4-n4cccn4)n3)c(OC)cc2CC1 [Example 1321, 5-Chloro-N*2*-[8-methoxy-3-(2-methoxy-ethyl)-2,3,4,5-tetrahydro-1H-benzo[d]azepin-7-yl]-N*4*-(2-pyrazol-1-yl-phenyl)-pyrimidine-2,4-diamine]

IC50 [1, 5]: 1 to 10 µM | IC50 [2, 6]: 1 to 10 µM
SMILES: C#CCNC(=O)c1cccc(F)c1Nc1nc(Nc2ccc3c(c2)N(C(C)C)CCCC3(C)C)ncc1Cl [Example 1627, 2-[5-Chloro-2-(1-isopropyl-5,5-dimethyl-2,3,4,5-tetrahydro-1H-benzo[b]azepin-8-ylamino)-pyrimidin-4-ylamino]-3-fluoro-N-prop-2-ynyl-benzamide]

IC50 [1, 9]: < 0.1 µM | IC50 [2, 10]: > 10 µM
SMILES: CNC(=O)CN1CCc2cc(Nc3ncc(Cl)c(Nc4cc(Cl)ccc4OC)n3)c(OC)cc2CC1 [Example 1118, 2-{7-[5-Chloro-4-(5-chloro-2-methoxy-phenylamino)-pyrimidin-2-ylamino]-8-methoxy-1,2,4,5-tetrahydro-benzo[d]azepin-3-yl}-N-methyl-acetamide]

IC50 [1, 5]: 0.1 to 1 µM | IC50 [2, 6]: > 10 µM
SMILES: CCN1CCCC(C)(C)c2ccc(Nc3ncc(Cl)c(Nc4ccc(N5CCOCC5)cc4OC)n3)cc21 [Example 1635, 5-Chloro-N*2*-(1-ethyl-5,5-dimethyl-2,3,4,5-tetrahydro-1H-benzo[b]azepin-8-yl)-N*4*-(2-methoxy-4-morpholin-4-yl-phenyl)-pyrimidine-2,4-diamine]

IC50 [1, 7]: 0.1 to 1 µM | IC50 [2, 8]: 1 to 10 µM
SMILES: CNC(=O)c1cccc(Nc2nc(Nc3ccc4c(c3)CCCC(=O)N4C)ncc2Cl)c1 [Example 668, 3-[5-Chloro-2-(1-methyl-2-oxo-2,3,4,5-tetrahydro-1H-benzo[b]azepin-7-ylamino)-pyrimidin-4-ylamino]-N-methyl-benzamide]

IC50 [1, 3]: < 0.1 µM | IC50 [2, 4]: < 0.1 µM
SMILES: CCN1CCc2ccc(Nc3ncc(Cl)c(Nc4cc(Cl)ccc4C(=O)NC)n3)cc2CC1 [Example 33, 4-Chloro-2-[5-chloro-2-(3-ethyl-2,3,4,5-tetrahydro-1H-benzo[d]azepin-7-ylamino)-pyrimidin-4-ylamino]-N-methyl-benzamide]

IC50 [1, 3]: 0.1 to 1 µM | IC50 [2, 4]: < 0.1 µM
SMILES: CNC(=O)c1ccccc1Nc1nc(Nc2ccc3c(c2)C2CN(S(C)(=O)=O)CC3O2)ncc1Cl (stereo not shown) [Example 64, 2-[5-Chloro-2-(10-methanesulfonyl-12-oxa-10-aza-tricyclo[6.3.1.0*2,7*]dodeca-2(7),3,5-trien-4-ylamino)-pyrimidin-4-ylamino]-N-methyl-benzamide]

IC50 [1, 7]: < 0.1 µM | IC50 [2, 8]: 1 to 10 µM
SMILES: COCCN1CCc2ccc(Nc3ncc(Cl)c(Nc4ccc(N5CCOCC5)cc4S(=O)(=O)N(C)C)n3)cc2CC1 [Example 853, 2-{5-Chloro-2-[3-(2-methoxy-ethyl)-2,3,4,5-tetrahydro-1H-benzo[d]azepin-7-ylamino]-pyrimidin-4-ylamino}-N,N-dimethyl-5-morpholin-4-yl-benzenesulfonamide]

IC50 [1, 9]: < 0.1 µM | IC50 [2, 10]: > 10 µM
SMILES: COCCOc1ccc(Nc2nc(Nc3cc4c(cc3OC)CCN(CCS(C)(=O)=O)CC4)ncc2Cl)c(OC)c1 [Example 1168, 5-Chloro-N*2*-[3-(2-methanesulfonyl-ethyl)-8-methoxy-2,3,4,5-tetrahydro-1H-benzo[d]azepin-7-yl]-N*4*-[2-methoxy-4-(2-methoxy-ethoxy)-phenyl]-pyrimidine-2,4-diamine]

IC50 [1, 7]: 0.1 to 1 µM | IC50 [2, 8]: > 10 µM
SMILES: CC1(C)CCCOc2c(Nc3ncc(Cl)c(Nc4ccccc4-n4cccn4)n3)cccc21 [Example 885, 5-Chloro-N*2*-(5,5-dimethyl-2,3,4,5-tetrahydro-benzo[b]oxepin-9-yl)-N*4*-(2-pyrazol-1-yl-phenyl)-pyrimidine-2,4-diamine]

IC50 [1, 9]: < 0.1 µM | IC50 [2, 10]: 0.1 to 1 µM
SMILES: NC(=O)[C@@H]1[C@H](Nc2nc(Nc3ccc4c(c3)CCC(O)CC4)ncc2Cl)[C@H]2C=C[C@@H]1C2 (stereo partly drawn) [Example 1017, (1S,2S,3R,4R)-3-[5-Chloro-2-(7-hydroxy-6,7,8,9-tetrahydro-5H-benzocyclohepten-2-ylamino)-pyrimidin-4-ylamino]-bicyclo[2.2.1]hept-5-ene-2-carboxylic acid amide]

SMILES: CS(=O)(=O)N[C@@H]1CCCC[C@H]1Nc1nc(Nc2ccc3c(c2)C2CCC3CN(C(=O)C(F)(F)F)C2)ncc1Cl (mixture of isomers) [Example 292, N-((1R,2R)-2-{5-Chloro-2-[10-(2,2,2-trifluoro-acetyl)-10-aza-tricyclo[6.3.2.0*2,7*]trideca-2,4,6-trien-4-ylamino]-pyrimidin-4-ylamino}-cyclohexyl)-methanesulfonamide]
IC50 [1, 3]: < 0.1 µM | IC50 [2, 4]: 1 to 10 µM

IC50 [1, 9]: < 0.1 µM | IC50 [2, 10]: > 10 µM
SMILES: COc1cc2c(cc1Nc1ncc(Cl)c(Nc3ccc(N(C)C)cc3OC)n1)CCN(Cc1ncco1)CC2 [Example 1172, 5-Chloro-N*4*-(4-dimethylamino-2-methoxy-phenyl)-N*2*-(8-methoxy-3-oxazol-2-ylmethyl-2,3,4,5-tetrahydro-1H-benzo[d]azepin-7-yl)-pyrimidine-2,4-diamine]

IC50 [1, 3]: 1 to 10 µM | IC50 [2, 4]: > 10 µM
SMILES: CNC(=O)c1ccccc1Nc1nc(Nc2cccc3c2C(=O)N(C)CCN3C)ncc1Cl [Example 213, 2-[5-Chloro-2-(1,4-dimethyl-5-oxo-2,3,4,5-tetrahydro-1H-benzo[e][1,4]diazepin-6-ylamino)-pyrimidin-4-ylamino]-N-methyl-benzamide]

IC50 [1, 9]: < 0.1 µM | IC50 [2, 10]: 1 to 10 µM
SMILES: COc1cc2c(cc1Nc1ncc(Cl)c(Nc3ccccc3S(=O)(=O)N(C)C)n1)CCC(N1CCN(C)CC1)CC2 (stereo not shown) [Example 1099, 2-{5-Chloro-2-[3-methoxy-7-(4-methyl-piperazin-1-yl)-6,7,8,9-tetrahydro-5H-benzocyclohepten-2-ylamino]-pyrimidin-4-ylamino}-N,N-dimethyl-benzenesulfonamide]

IC50 [1, 7]: 0.1 to 1 µM | IC50 [2, 8]: 1 to 10 µM
SMILES: COCCN1CCc2ccc(Nc3ncc(Cl)c(Nc4ccccc4-c4nccn4CCOC)n3)cc2CC1 [Example 981, 5-Chloro-N*4*-{2-[1-(2-methoxy-ethyl)-1H-imidazol-2-yl]-phenyl}-N*2*-[3-(2-methoxy-ethyl)-2,3,4,5-tetrahydro-1H-benzo[d]azepin-7-yl]-pyrimidine-2,4-diamine]

IC50 [1, 3]: < 0.1 µM | IC50 [2, 4]: > 10 µM
SMILES: COc1cc2c(cc1Nc1ncc(Cl)c(N[C@@H]3[C@H](C(N)=O)[C@H]4C=C[C@@H]3C4)n1)CCN(CC(F)(F)F)CC2 (relative stereo) [Example 250, (2-exo, 3-exo)-3-{5-Chloro-2-[8-methoxy-3-(2,2,2-trifluoro-ethyl)-2,3,4,5-tetrahydro-1H-benzo[d]azepin-7-ylamino]-pyrimidin-4-ylamino}-bicyclo[2.2.1]hept-5-ene-2-carboxylic acid amide hydrochloride]

IC50 [1, 5]: < 0.1 µM | IC50 [2, 6]: < 0.1 µM
SMILES: CCN1C(=O)OCCc2cc(Nc3ncc(Cl)c(Nc4ccccc4C(=O)NC)n3)ccc21 [Example 1745, 2-[5-chloro-2-(5-ethyl-6-oxo-5,6,8,9-tetrahydro-7-oxa-5-aza-benzocyclohepten-2-ylamino)-pyrimidin-4-ylamino]-N-methyl-benzamide]
